# According to the supplement of paper PMC10307832:
# What was measured:
# Experiment in all cases: relative viability (nuclei count vs DMSO), 5 days (fraction); higher = more cells survive
# HCC-15 = system: HCC-15
# Procedure, shortened: (§1)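 The day after seeding in 1536-well plates, lung cancer cell lines were treated by pin tool with a single drug, or with a fixed anchor-drug dose together with five library-drug doses (not always all listed) in √10 steps. After 5 days, a combined fix-and-stain solution (final 0.05% Triton X-100, 1% formaldehyde, 1 ug/ml Hoechst) was added. Nuclei counted on 4× images gave relative viability as treated counts over vehicle counts, reported as the median of duplicate plates.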
# NCI-H1651 = system: NCI-H1651
# Procedure, shortened: as §1
# EMC-BAC-2 = system: EMC-BAC-2
# Procedure, shortened: as §1
# BEN = system: BEN
# Procedure, shortened: as §1
# NCI-H838 = system: NCI-H838
# Procedure, shortened: as §1
# NCI-H358 = system: NCI-H358
# Procedure, shortened: as §1
# NCI-H2023 = system: NCI-H2023
# Procedure, shortened: as §1
# LK-2 = system: LK-2
# Procedure, shortened: as §1
# COR-L 105 = system: COR-L 105
# Procedure, shortened: as §1
# NCI-H322M = system: NCI-H322M
# Procedure, shortened: as §1
# ABC-1 = system: ABC-1
# Procedure, shortened: as §1
# NCI-H1563 = system: NCI-H1563
# Procedure, shortened: as §1
# NCI-H727 = system: NCI-H727
# Procedure, shortened: as §1
# 201T = system: 201T
# Procedure, shortened: as §1
# HCC-44 = system: HCC-44
# Procedure, shortened: as §1
# NCI-H520 = system: NCI-H520
# Procedure, shortened: as §1
# CAL-12T = system: CAL-12T
# Procedure, shortened: as §1
# NCI-H460 = system: NCI-H460
# Procedure, shortened: as §1
# EKVX = system: EKVX
# Procedure, shortened: as §1
# LU99A = system: LU99A
# Procedure, shortened: as §1
# PC-3 [JPC-3] = system: PC-3 [JPC-3]
# Procedure, shortened: as §1
compound,measurement,setting,value
Cc1csc(=NC2CCCCC2)n1/N=C/c1ccc(O)c(O)c1O [MIM1] + C[C@]1(O)C[C@@H](c2nc(-c3ccc4ccc(-c5ccccc5)nc4c3)c3c(N)nccn32)C1 [Linsitinib] (partner 1 µM),relative viability,HCC-15; first compound 0.2 µM,0.901
same,relative viability,HCC-15; first compound 0.6325 µM,0.808
same,relative viability,HCC-15; first compound 2 µM,0.941
same,relative viability,HCC-15; first compound 6.325 µM,0.476
same,relative viability,HCC-15; first compound 20 µM,0.211
same,relative viability,NCI-H1651; first compound 0.2 µM,0.925
same,relative viability,NCI-H1651; first compound 0.6325 µM,0.993
same,relative viability,NCI-H1651; first compound 2 µM,1
same,relative viability,NCI-H1651; first compound 6.325 µM,0.825
same,relative viability,NCI-H1651; first compound 20 µM,0.797
same,relative viability,EMC-BAC-2; first compound 0.2 µM,0.776
same,relative viability,EMC-BAC-2; first compound 0.6325 µM,0.822
same,relative viability,EMC-BAC-2; first compound 2 µM,0.784
same,relative viability,EMC-BAC-2; first compound 6.325 µM,0.757
same,relative viability,EMC-BAC-2; first compound 20 µM,0.328
same,relative viability,BEN; first compound 0.2 µM,0.888
same,relative viability,BEN; first compound 0.6325 µM,0.877
same,relative viability,BEN; first compound 2 µM,0.981
same,relative viability,BEN; first compound 6.325 µM,0.826
same,relative viability,BEN; first compound 20 µM,0.42
same,relative viability,NCI-H838; first compound 0.2 µM,0.887
same,relative viability,NCI-H838; first compound 0.6325 µM,1.1
same,relative viability,NCI-H838; first compound 2 µM,0.851
same,relative viability,NCI-H838; first compound 6.325 µM,0.765
same,relative viability,NCI-H838; first compound 20 µM,0.464
same,relative viability,NCI-H358; first compound 0.2 µM,0.703
same,relative viability,NCI-H358; first compound 0.6325 µM,0.651
same,relative viability,NCI-H358; first compound 2 µM,0.694
same,relative viability,NCI-H358; first compound 6.325 µM,0.324
same,relative viability,NCI-H358; first compound 20 µM,0.341
same,relative viability,NCI-H2023; first compound 0.2 µM,0.625
same,relative viability,NCI-H2023; first compound 0.6325 µM,0.739
same,relative viability,NCI-H2023; first compound 2 µM,0.615
same,relative viability,NCI-H2023; first compound 6.325 µM,0.482
same,relative viability,NCI-H2023; first compound 20 µM,0.443
same,relative viability,LK-2; first compound 0.2 µM,0.801
same,relative viability,LK-2; first compound 0.6325 µM,0.631
same,relative viability,LK-2; first compound 2 µM,0.519
same,relative viability,LK-2; first compound 6.325 µM,0.566
same,relative viability,LK-2; first compound 20 µM,0.179
same,relative viability,COR-L 105; first compound 0.2 µM,0.899
same,relative viability,COR-L 105; first compound 0.6325 µM,1.04
same,relative viability,COR-L 105; first compound 2 µM,0.898
same,relative viability,COR-L 105; first compound 6.325 µM,0.962
same,relative viability,COR-L 105; first compound 20 µM,0.796
same,relative viability,NCI-H322M; first compound 0.2 µM,1.01
same,relative viability,NCI-H322M; first compound 0.6325 µM,0.981
same,relative viability,NCI-H322M; first compound 2 µM,1.05
same,relative viability,NCI-H322M; first compound 6.325 µM,0.905
same,relative viability,NCI-H322M; first compound 20 µM,0.912
same,relative viability,ABC-1; first compound 0.2 µM,0.769
same,relative viability,ABC-1; first compound 0.6325 µM,1.14
same,relative viability,ABC-1; first compound 2 µM,0.651
same,relative viability,ABC-1; first compound 6.325 µM,0.388
same,relative viability,ABC-1; first compound 20 µM,0.24
same,relative viability,NCI-H1563; first compound 0.2 µM,1.13
same,relative viability,NCI-H1563; first compound 0.6325 µM,1.29
same,relative viability,NCI-H1563; first compound 2 µM,1.1
same,relative viability,NCI-H1563; first compound 6.325 µM,0.977
same,relative viability,NCI-H1563; first compound 20 µM,0.957
same,relative viability,NCI-H727; first compound 0.2 µM,0.311
same,relative viability,NCI-H727; first compound 0.6325 µM,0.284
same,relative viability,NCI-H727; first compound 2 µM,0.276
same,relative viability,NCI-H727; first compound 6.325 µM,0.278
same,relative viability,NCI-H727; first compound 20 µM,0.266
same,relative viability,201T; first compound 0.2 µM,1.02
same,relative viability,201T; first compound 0.6325 µM,1.04
same,relative viability,201T; first compound 2 µM,1.04
same,relative viability,201T; first compound 6.325 µM,1.03
same,relative viability,201T; first compound 20 µM,1.25
same,relative viability,HCC-44; first compound 0.2 µM,0.67
same,relative viability,HCC-44; first compound 0.6325 µM,0.713
same,relative viability,HCC-44; first compound 2 µM,0.555
same,relative viability,HCC-44; first compound 6.325 µM,0.555
same,relative viability,HCC-44; first compound 20 µM,0.141
same,relative viability,NCI-H520; first compound 0.2 µM,0.983
same,relative viability,NCI-H520; first compound 0.6325 µM,1.1
same,relative viability,NCI-H520; first compound 2 µM,0.921
same,relative viability,NCI-H520; first compound 6.325 µM,0.64
same,relative viability,NCI-H520; first compound 20 µM,0.5
same,relative viability,CAL-12T; first compound 0.2 µM,0.803
same,relative viability,CAL-12T; first compound 0.6325 µM,0.677
same,relative viability,CAL-12T; first compound 2 µM,0.695
same,relative viability,CAL-12T; first compound 6.325 µM,0.634
same,relative viability,CAL-12T; first compound 20 µM,0.225
same,relative viability,NCI-H460; first compound 0.2 µM,0.791
same,relative viability,NCI-H460; first compound 0.6325 µM,0.783
same,relative viability,NCI-H460; first compound 2 µM,0.582
same,relative viability,NCI-H460; first compound 6.325 µM,0.287
same,relative viability,NCI-H460; first compound 20 µM,0.022
same,relative viability,EKVX; first compound 0.2 µM,1.03
same,relative viability,EKVX; first compound 0.6325 µM,0.867
same,relative viability,EKVX; first compound 2 µM,0.958
same,relative viability,EKVX; first compound 6.325 µM,0.631
same,relative viability,EKVX; first compound 20 µM,0.667
same,relative viability,LU99A; first compound 0.2 µM,0.528
same,relative viability,LU99A; first compound 0.6325 µM,0.57
same,relative viability,LU99A; first compound 2 µM,0.489
same,relative viability,LU99A; first compound 6.325 µM,0.545
same,relative viability,LU99A; first compound 20 µM,0.284
same,relative viability,PC-3 [JPC-3]; first compound 0.2 µM,0.946
same,relative viability,PC-3 [JPC-3]; first compound 0.6325 µM,0.952
same,relative viability,PC-3 [JPC-3]; first compound 2 µM,1
same,relative viability,PC-3 [JPC-3]; first compound 6.325 µM,0.805
same,relative viability,PC-3 [JPC-3]; first compound 20 µM,0.845
